Here are results for 27 molecules from patent US20090298820A1, “3-SUBSTITUTED-1H-PYRROLO[2,3-B]PYRIDINE AND 3-SUBSTITUTED-1H-PYRROLO[3,2-B]PYRIDINE COMPOUNDS, THEIR USE AS MTOR KINASE AND PI3 KINASE INHIBITORS, AND THEIR SYNTHESES” (Wyeth, priority 2008, published 2009).

A value given as a limit tells only on which side of the number the result lay.

What all share (type): biochemical
One experiment has as its target PI3Kα (Homo sapiens, UniProt P42336). The experiment in a line: PI3K-alpha fluorescence polarization assay. Conditions: read-out: PI3Kα Median IC50. Background: Fluorescence polarisation rises when a labelled molecule tumbles more slowly, as on binding a larger partner.
For a further experiment, the target named is PI3Kγ (Homo sapiens, UniProt P48736). In words: PI3K-gamma fluorescence polarization assay. Conditions: read-out: PI3Kγ Median IC50.
Another experiment has as its target mTOR (Homo sapiens, UniProt P42345). The experiment in a line: mTOR enzyme assay (DELFIA format, His6-S6K substrate). Particulars: read-out: mTOR Kinase Median IC50.

Sequence of PI3Kα (P42336 whole entry, species assumed): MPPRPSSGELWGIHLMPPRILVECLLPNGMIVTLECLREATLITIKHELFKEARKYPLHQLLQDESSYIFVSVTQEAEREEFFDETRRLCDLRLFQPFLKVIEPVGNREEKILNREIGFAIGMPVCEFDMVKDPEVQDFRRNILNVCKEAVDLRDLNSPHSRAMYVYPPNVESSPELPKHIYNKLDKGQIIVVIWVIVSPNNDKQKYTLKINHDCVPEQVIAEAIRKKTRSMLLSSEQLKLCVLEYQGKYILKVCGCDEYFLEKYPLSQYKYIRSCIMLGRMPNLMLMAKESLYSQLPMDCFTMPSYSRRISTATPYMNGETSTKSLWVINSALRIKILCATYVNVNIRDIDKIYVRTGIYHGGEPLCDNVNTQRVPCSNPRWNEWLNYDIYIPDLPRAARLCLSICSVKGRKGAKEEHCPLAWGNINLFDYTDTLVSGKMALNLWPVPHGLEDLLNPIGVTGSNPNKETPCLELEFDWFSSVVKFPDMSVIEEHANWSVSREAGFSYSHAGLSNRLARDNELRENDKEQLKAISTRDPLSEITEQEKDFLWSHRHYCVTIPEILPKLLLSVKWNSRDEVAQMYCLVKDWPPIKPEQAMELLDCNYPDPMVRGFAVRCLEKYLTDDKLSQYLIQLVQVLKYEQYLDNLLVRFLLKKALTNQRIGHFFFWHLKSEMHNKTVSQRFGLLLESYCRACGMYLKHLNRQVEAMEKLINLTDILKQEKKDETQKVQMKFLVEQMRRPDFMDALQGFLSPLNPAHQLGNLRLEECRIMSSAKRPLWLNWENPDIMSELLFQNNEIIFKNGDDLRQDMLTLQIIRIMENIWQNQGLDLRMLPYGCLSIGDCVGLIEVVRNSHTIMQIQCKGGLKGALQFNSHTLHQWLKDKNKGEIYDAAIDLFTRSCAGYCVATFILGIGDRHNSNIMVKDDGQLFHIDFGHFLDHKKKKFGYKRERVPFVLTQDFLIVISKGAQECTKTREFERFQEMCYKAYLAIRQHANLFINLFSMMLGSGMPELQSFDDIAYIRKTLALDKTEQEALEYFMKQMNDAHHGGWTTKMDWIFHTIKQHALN
Sequence of PI3Kα (P27986 whole entry partner, species assumed): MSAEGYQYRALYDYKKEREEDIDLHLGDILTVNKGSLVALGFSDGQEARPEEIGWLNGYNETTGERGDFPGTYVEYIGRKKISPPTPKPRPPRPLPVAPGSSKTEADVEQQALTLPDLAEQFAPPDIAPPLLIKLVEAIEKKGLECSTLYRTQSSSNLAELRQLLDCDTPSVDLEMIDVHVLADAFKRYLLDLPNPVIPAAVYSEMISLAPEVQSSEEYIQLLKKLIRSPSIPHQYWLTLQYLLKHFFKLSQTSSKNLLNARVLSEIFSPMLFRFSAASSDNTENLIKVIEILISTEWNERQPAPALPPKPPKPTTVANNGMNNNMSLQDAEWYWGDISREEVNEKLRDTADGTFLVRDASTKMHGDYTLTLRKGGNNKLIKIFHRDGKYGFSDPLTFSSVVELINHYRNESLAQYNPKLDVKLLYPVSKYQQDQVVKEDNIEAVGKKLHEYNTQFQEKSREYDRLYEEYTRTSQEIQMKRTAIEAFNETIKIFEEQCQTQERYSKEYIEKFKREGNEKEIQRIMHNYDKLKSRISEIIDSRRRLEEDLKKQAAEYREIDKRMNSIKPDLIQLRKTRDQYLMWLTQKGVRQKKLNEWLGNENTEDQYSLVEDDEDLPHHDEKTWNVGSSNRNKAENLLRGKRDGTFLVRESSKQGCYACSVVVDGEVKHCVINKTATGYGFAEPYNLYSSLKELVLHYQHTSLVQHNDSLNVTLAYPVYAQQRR
Sequence of PI3Kγ (P48736 whole entry, species assumed): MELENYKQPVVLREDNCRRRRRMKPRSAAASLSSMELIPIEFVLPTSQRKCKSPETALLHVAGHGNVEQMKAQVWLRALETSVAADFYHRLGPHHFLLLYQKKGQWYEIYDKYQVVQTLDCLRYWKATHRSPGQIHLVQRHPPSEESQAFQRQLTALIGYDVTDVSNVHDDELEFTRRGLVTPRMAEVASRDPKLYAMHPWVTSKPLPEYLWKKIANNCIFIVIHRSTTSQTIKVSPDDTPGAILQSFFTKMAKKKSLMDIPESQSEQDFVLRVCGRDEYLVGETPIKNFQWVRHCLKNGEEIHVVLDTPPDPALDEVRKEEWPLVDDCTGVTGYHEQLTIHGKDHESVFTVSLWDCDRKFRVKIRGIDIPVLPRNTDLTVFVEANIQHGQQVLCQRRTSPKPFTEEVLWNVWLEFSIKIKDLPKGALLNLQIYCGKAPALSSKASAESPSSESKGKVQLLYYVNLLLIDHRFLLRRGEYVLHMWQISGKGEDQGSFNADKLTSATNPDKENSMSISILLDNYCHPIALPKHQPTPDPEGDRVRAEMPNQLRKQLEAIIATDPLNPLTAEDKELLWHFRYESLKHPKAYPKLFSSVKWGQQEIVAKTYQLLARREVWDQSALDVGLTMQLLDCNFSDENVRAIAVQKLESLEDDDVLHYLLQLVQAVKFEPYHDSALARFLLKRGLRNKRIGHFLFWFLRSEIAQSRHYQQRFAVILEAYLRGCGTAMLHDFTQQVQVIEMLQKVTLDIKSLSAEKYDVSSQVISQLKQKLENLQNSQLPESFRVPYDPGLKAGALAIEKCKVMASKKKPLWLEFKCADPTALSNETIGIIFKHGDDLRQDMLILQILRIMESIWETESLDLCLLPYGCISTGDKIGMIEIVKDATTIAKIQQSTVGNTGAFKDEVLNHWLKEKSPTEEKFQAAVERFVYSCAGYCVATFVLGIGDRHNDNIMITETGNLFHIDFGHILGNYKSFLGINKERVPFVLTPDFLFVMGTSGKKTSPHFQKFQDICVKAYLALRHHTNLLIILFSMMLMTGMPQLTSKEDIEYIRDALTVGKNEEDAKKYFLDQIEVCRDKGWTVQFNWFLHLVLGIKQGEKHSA

In general, IC50 refers to the point on the concentration scale where inhibition reaches its midpoint. For “1-cyclopropyl-3-[(2Z)-2-{[1-methyl-4-(8-oxa-3-azabicyclo[3.2.1]oct-3-yl)-1H-pyrrolo[2,3-b]pyridin-3-yl]methylidene}-3-oxo-2,3-dihydro-1-benzofuran-5-yl]urea [Compound 237]”, the IC50 at PI3Kα was found to be 289 nM; at PI3Kγ, 2130 nM; at mTOR it was 23 nM.

For the molecule `Cn1cc(C=C2Oc3cc(O)cc(O)c3C2=O)c2cccnc21` [Compound 1, 4,6-dihydroxy-2-[(1-methyl-1H-pyrrolo[2,3-b]pyridin-3-yl)methylene]-1-benzofuran-3(2H)-one], the IC50 stood at 64 nM at PI3Kα, 168 nM on PI3Kγ and 41.5 nM on mTOR.

As for `Cn1cc(C=C2Oc3c(ccc(O)c3O)C2=O)c2cccnc21` [Compound 2, 6,7-dihydroxy-2-[(1-methyl-1H-pyrrolo[2,3-b]pyridin-3-yl)methylene]-1-benzofuran-3(2H)-one], on PI3Kα, the IC50 worked out at 2340 nM.

Regarding `COc1ccc2c(n1)c(C=C1Oc3cc(O)cc(O)c3C1=O)cn2C` [Compound 3, 4,6-dihydroxy-2-[(5-methoxy-1-methyl-1H-pyrrolo[3,2-b]pyridin-3-yl)methylene]-1-benzofuran-3(2H)-one], the IC50 is 506 nM on PI3Kα, > 10000 nM at PI3Kγ and 685 nM on mTOR.

As for `COc1ccc2c(n1)c(C=C1Oc3c(ccc(O)c3O)C1=O)cn2C` [Compound 4, 6,7-dihydroxy-2-[(5-methoxy-1-methyl-1H-pyrrolo[3,2-b]pyridin-3-yl)methylene]-1-benzofuran-3(2H)-one], the IC50 came to 676 nM on PI3Kα and 8500 nM on PI3Kγ.

On to `COc1ccc2c(n1)c(C=C1Oc3cccc(O)c3C1=O)cn2C` [Compound 5, 4-hydroxy-2-[(5-methoxy-1-methyl-1H-pyrrolo[3,2-b]pyridin-3-yl)methylene]-1-benzofuran-3(2H)-one], for which the results for the IC50 on PI3Kα, on PI3Kγ and at mTOR were 3930 nM, > 10000 nM and > 20000 nM, respectively.

As to `CN1CCN(CCCn2cc(C=C3Oc4cc(O)cc(O)c4C3=O)c3cccnc32)CC1` [Compound 6, 4,6-dihydroxy-2-({1-[3-(4-methylpiperazin-1-yl)propyl]-1H-pyrrolo[2,3-b]pyridin-3-yl}methylene)-1-benzofuran-3(2H)-one], the IC50 at PI3Kα is 5890 nM; on PI3Kγ, > 10000 nM.

Regarding `O=C1C(=Cc2cn(CCCN3CCOCC3)c3ncccc23)Oc2cc(O)cc(O)c21` [Compound 7, 4,6-dihydroxy-2-{[1-(3-morpholin-4-ylpropyl)-1H-pyrrolo[2,3-b]pyridin-3-yl]methylene}-1-benzofuran-3(2H)-one], the IC50 is 921 nM at PI3Kα and > 10000 nM at PI3Kγ.

As to `CN1CCN(CCCn2cc(C=C3Oc4c(ccc(O)c4O)C3=O)c3cccnc32)CC1` [Compound 8, 6,7-dihydroxy-2-({1-[3-(4-methylpiperazin-1-yl)propyl]-1H-pyrrolo[2,3-b]pyridin-3-yl}methylene)-1-benzofuran-3(2H)-one], the values for the IC50 on PI3Kα and at PI3Kγ were 203 nM and 9000 nM, respectively.

Turning to `O=C1C(=Cc2cn(CCCN3CCOCC3)c3ncccc23)Oc2c1ccc(O)c2O` [Compound 9, 6,7-dihydroxy-2-{[1-(3-morpholin-4-ylpropyl)-1H-pyrrolo[2,3-b]pyridin-3-yl]methylene}-1-benzofuran-3(2H)-one], the IC50 was 135 nM at PI3Kα and 9170 nM on PI3Kγ.

Consider `O=C1C(=Cc2cn(CCCN3CCN(CCO)CC3)c3ncccc23)Oc2c1ccc(O)c2O` [Compound 10, 6,7-dihydroxy-2-[(1-{3-[4-(2-hydroxyethyl)piperazin-1-yl]propyl}-1H-pyrrolo[2,3-b]pyridin-3-yl)methylene]-1-benzofuran-3(2H)-one], for which the IC50 on PI3Kα and on PI3Kγ was > 10000 nM each time.

Regarding `O=C1C(=Cc2c[nH]c3ncccc23)Oc2cc(O)cc(O)c21` [Compound 11, 4,6-dihydroxy-2-(1H-pyrrolo[2,3-b]pyridin-3-ylmethylene)-1-benzofuran-3(2H)-one], the half-maximal inhibitory concentration (IC50) on PI3Kα stood at 525 nM; on mTOR, 1200 nM.

As for `Cn1cc(/C=C2\Oc3cc(O)cc(O)c3C2=O)c2c(-c3ccccc3Cl)ccnc21` [Compound 12, (2Z)-2-{[4-(2-chlorophenyl)-1-methyl-1H-pyrrolo[2,3-b]pyridin-3-yl]methylene}-4,6-dihydroxy-1-benzofuran-3(2H)-one], the IC50 was 167 nM at PI3Kα, 270 nM at PI3Kγ and 2.8 nM on mTOR.

`Cn1cc(/C=C2\Oc3cc(O)cc(O)c3C2=O)c2c(-c3cccc(Cl)c3)ccnc21` [Compound 13, (2Z)-2-{[4-(3-chlorophenyl)-1-methyl-1H-pyrrolo[2,3-b]pyridin-3-yl]methylene}-4,6-dihydroxy-1-benzofuran-3(2H)-one]: the IC50 on PI3Kα worked out at 116 nM; on PI3Kγ, 79 nM; at mTOR, 1.2 nM.

As for `COc1ccccc1-c1ccnc2c1c(/C=C1\Oc3cc(O)cc(O)c3C1=O)cn2C` [Compound 14, (2Z)-4,6-dihydroxy-2-{[4-(2-methoxyphenyl)-1-methyl-1H-pyrrolo[2,3-b]pyridin-3-yl]methylene}-1-benzofuran-3(2H)-one], the IC50 on PI3Kα was determined as 188 nM; at PI3Kγ, 220 nM; at mTOR, 1.4 nM.

`Cn1cc(/C=C2\Oc3cc(O)cc(O)c3C2=O)c2c(-c3ccc(OC(F)(F)F)cc3)ccnc21` [Compound 15, (2Z)-4,6-dihydroxy-2-({1-methyl-4-[4-(trifluoromethoxy)phenyl]-1H-pyrrolo[2,3-b]pyridin-3-yl}methylene)-1-benzofuran-3(2H)-one]: the IC50 at mTOR is 1 nM.

As to `Cn1cc(/C=C2\Oc3cc(O)cc(O)c3C2=O)c2c(-c3ccc(OCCn4ccnc4)cc3)ccnc21` [Compound 16, (2Z)-4,6-dihydroxy-2-[(4-{4-[2-(1H-imidazol-1-yl)ethoxy]phenyl}-1-methyl-1H-pyrrolo[2,3-b]pyridin-3-yl)methylene]-1-benzofuran-3(2H)-one], the IC50 on PI3Kα is 24 nM; on PI3Kγ, 247 nM; at mTOR, 5 nM.

Consider `Cn1cc(/C=C2\Oc3cc(O)cc(O)c3C2=O)c2c(-c3ccc(S(N)(=O)=O)cc3)ccnc21` [Compound 17, 4-{3-[(Z)-(4,6-dihydroxy-3-oxo-1-benzofuran-2(3H)-ylidene)methyl]-1-methyl-1H-pyrrolo[2,3-b]pyridin-4-yl}benzenesulfonamide], for which the IC50 was determined as 7 nM at PI3Kα, 57 nM on PI3Kγ and 0.3 nM on mTOR.

Take `Cn1cc(/C=C2\Oc3cc(O)cc(O)c3C2=O)c2c(-c3cccc(NS(C)(=O)=O)c3)ccnc21` [Compound 18, N-(3-{3-[(Z)-(4,6-dihydroxy-3-oxo-1-benzofuran-2(3H)-ylidene)methyl]-1-methyl-1H-pyrrolo[2,3-b]pyridin-4-yl}phenyl)methanesulfonamide]: the IC50 on PI3Kα was determined as 19 nM; at PI3Kγ, 106 nM; at mTOR, 2.7 nM.

Take `Cn1cc(/C=C2\Oc3cc(O)cc(O)c3C2=O)c2c(-c3ccc(O)cc3)ccnc21` [Compound 19, (2Z)-4,6-dihydroxy-2-{[4-(4-hydroxyphenyl)-1-methyl-1H-pyrrolo[2,3-b]pyridin-3-yl]methylene}-1-benzofuran-3(2H)-one]: the results for the IC50 on PI3Kα, at PI3Kγ and at mTOR were 14 nM, 35 nM and 0.5 nM, respectively.

In the case of `CN1CCN(c2ccnc3c2c(/C=C2\Oc4cc(O)cc(O)c4C2=O)cn3C)CC1` [Compound 44, (2Z)-4,6-dihydroxy-2-{[1-methyl-4-(4-methylpiperazin-1-yl)-1H-pyrrolo[2,3-b]pyridin-3-yl]methylene}-1-benzofuran-3(2H)-one], the IC50 came to 44 nM on PI3Kα and 200 nM at PI3Kγ.

`Cn1cc(/C=C2\Oc3cccc(O)c3C2=O)c2c(-c3ccc(C(=O)N4CCOCC4)cc3)ccnc21` [Compound 128, (2Z)-4-hydroxy-2-({1-methyl-4-[4-(morpholin-4-ylcarbonyl)phenyl]-1H-pyrrolo[2,3-b]pyridin-3-yl}methylene)-1-benzofuran-3(2H)-one]: at mTOR, the IC50 came to 0.5 nM.

With `CN(C)S(=O)(=O)c1ccc(-c2ccnc3c2c(/C=C2\Oc4cccc(O)c4C2=O)cn3C)cc1` [Compound 180, 4-{3-[(Z)-(4-hydroxy-3-oxo-1-benzofuran-2(3H)-ylidene)methyl]-1-methyl-1H-pyrrolo[2,3-b]pyridin-4-yl}-N,N-dimethylbenzenesulfonamide], on mTOR, the IC50 was determined as 2.9 nM.

Regarding `Cn1cc(/C=C2\Oc3cccc(O)c3C2=O)c2c(-c3ccc(C(=O)NCCO)cc3)ccnc21` [Compound 182, N-(2-hydroxyethyl)-4-{3-[(Z)-(4-hydroxy-3-oxo-1-benzofuran-2(3H)-ylidene)methyl]-1-methyl-1H-pyrrolo[2,3-b]pyridin-4-yl}benzamide], the IC50 at mTOR was 1.6 nM.

Regarding `CN(C)C(=O)CN(C)C(=O)C1CCN(c2ccnc3c2c(C=C2Oc4ccc(NC(=O)Nc5cccnc5)cc4C2=O)cn3C)CC1` [Compound 201, N-[2-(dimethylamino)-2-oxoethyl]-N-methyl-1-[1-methyl-3-({3-oxo-5-[(pyridin-3-ylcarbamoyl)amino]-1-benzofuran-2(3H)-ylidene}methyl)-1H-pyrrolo[2,3-b]pyridin-4-yl]piperidine-4-carboxamide], the IC50 on mTOR came to 7.7 nM.

With `Cn1cc(/C=C2\Oc3ccc(NC(=O)NC4CCCCC4)cc3C2=O)c2c(N3CC4CCC(C3)O4)ccnc21` [Compound 236, 1-cyclohexyl-3-[(2Z)-2-{[1-methyl-4-(8-oxa-3-azabicyclo[3.2.1]oct-3-yl)-1H-pyrrolo[2,3-b]pyridin-3-yl]methylidene}-3-oxo-2,3-dihydro-1-benzofuran-5-yl]urea], the IC50 on PI3Kα stood at 1470 nM; on PI3Kγ, 2970 nM.

With `Cn1cc(/C=C2\Oc3ccc(NC(=O)Nc4ccc(Cl)nc4)cc3C2=O)c2c(N3CC4CCC(C3)O4)ccnc21` [Compound 299, 1-(6-chloropyridin-3-yl)-3-[(2Z)-2-{[1-methyl-4-(8-oxa-3-azabicyclo[3.2.1]oct-3-yl)-1H-pyrrolo[2,3-b]pyridin-3-yl]methylidene}-3-oxo-2,3-dihydro-1-benzofuran-5-yl]urea], at mTOR, the IC50 came to 69 nM.
